Experiments:
human ETB receptor = biological target: T1, human ETB receptor (Homo sapiens, UniProt P24530); experiment: Endothelin binding inhibition, Binding Test #2: competition with 125I-ET-1 for ETB receptors on transfected COS7 cell membranes; conditions: incubation at 24° C. (values marked †)
T1 construct: expressed in transfected cells; host or cells: COS7 cells
T1 sequence (P24530 27-442): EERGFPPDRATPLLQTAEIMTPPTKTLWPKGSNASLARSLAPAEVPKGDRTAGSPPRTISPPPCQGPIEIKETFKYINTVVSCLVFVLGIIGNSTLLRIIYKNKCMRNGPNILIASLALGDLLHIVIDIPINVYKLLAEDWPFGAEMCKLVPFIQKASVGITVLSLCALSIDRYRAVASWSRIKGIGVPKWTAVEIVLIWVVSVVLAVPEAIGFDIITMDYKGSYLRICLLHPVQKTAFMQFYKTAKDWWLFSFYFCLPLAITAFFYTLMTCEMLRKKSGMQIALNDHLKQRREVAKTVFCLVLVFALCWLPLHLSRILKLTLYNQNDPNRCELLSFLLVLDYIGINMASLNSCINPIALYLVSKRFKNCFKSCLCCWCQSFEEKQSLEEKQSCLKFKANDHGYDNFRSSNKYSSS
In short: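 Membranes from COS7 cells transfected with human ETB receptor, prepared in HEPES pH 7.4 with aprotinin, MnCl2/DNase treatment at 37° C for 30 min. Test compounds compete with 125I-labeled ET-1 for receptor binding; membrane used at 1 μg/50 μL binding buffer.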

[1] = Oral half-life and peak plasma levels; format: in vivo
Source text: As used herein, bioavailability refers to the rate and extent of absorption. Methods for determining bioavailability are well known to those of skill in the art. For example, bioavailability of any of the compounds described herein can be determined empirically by administration of the compound to an animal, followed by taking blood samples over time and measuring the blood concentration of the compound. In vivo half life (t1/2) is defined as the time it takes for the concentration of the compound in the blood to be reduced by one-half. Estimations of the area under the curve for intravenous administration can be used to estimate the area under the curve for oral administration, ylelding bioavailability data. See, e.g., Milo Gibal (1991) Biopharmaceutics and Pharmacology, 4th edition (Lea and Sediger).
Table 2 lists oral half-life, bioavailability, and in vivo activity of selected exemplary compounds. The in vivo activity was measured in a pulmonary hypertension model and is a measure of the activity of the compounds at selected dosages.

human ETA receptors = biological target: T2, human ETA receptors (Homo sapiens, UniProt P25101); experiment: Endothelin binding inhibition, Binding Test #1: competition with 125I-ET-1 for ETA receptors on TE 671 cell membranes; conditions: incubation at 24° C. (values marked †)
T2 construct: endogenous in cells; host or cells: TE 671 cells (ATCC HTB 139), membrane preparation
T2 sequence (P25101 21-427): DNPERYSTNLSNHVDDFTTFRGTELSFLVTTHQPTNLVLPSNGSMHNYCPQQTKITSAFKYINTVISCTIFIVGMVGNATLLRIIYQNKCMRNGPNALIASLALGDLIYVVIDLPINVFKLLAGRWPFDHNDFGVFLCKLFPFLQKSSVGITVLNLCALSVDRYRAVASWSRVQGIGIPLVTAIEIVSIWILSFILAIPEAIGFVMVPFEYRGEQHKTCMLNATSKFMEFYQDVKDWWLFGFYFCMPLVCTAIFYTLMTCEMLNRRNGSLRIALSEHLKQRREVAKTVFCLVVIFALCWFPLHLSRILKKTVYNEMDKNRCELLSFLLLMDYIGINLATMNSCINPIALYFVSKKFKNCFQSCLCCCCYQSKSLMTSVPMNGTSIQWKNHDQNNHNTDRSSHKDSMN

In the case of Cc1cc(C)c(NC(=O)c2sccc2S(=O)(=O)Nc2onc(C)c2Cl)c(C)c1O [N-(4-chloro-3-methyl-5-isoxazolyl)-2-(3-hydroxy-2,4,6-trimethylphenylaminocarbonyl)thiophene-3-sulfonamide], the IC50 (human ETB receptor) is reported as 18.7 µM, the “POt½ in Rat” value ([1]; oral) is reported as 7 h and the “Peak Plasma Levels” value ([1]; rat, in vivo) is reported as 5.6 µg/mL. It also gave an IC50 (human ETA receptors) of 0.00171 µM.
